Test results: patent US20250333418A1, “PURINE COMPOUNDS, COMPOSITIONS COMPRISING THEM AND USES THEREOF” (Novo Nordisk A/S, priority 2022, published 2025)

What was measured:
human CB1 receptor [1] = target: T1, human CB1 receptor (Homo sapiens, UniProt P21554); test: bioSensAll β-arrestin2 plasma membrane translocation (+GRK2) BRET biosensor assay in HEK293 cells transfected with hCB1; test compound added before EC75-80 of agonist CP55,940 (100 nM); assay type: cell-based; details: βArrestin2 (+GRK2) BRET biosensor, vs CP55,940 100 nM (EC75-80), read-out: CB1 wt βarr2 IC50
T1 construct: expressed in transfected cells; host or cells: HEK293
T1 sequence (P21554 whole entry): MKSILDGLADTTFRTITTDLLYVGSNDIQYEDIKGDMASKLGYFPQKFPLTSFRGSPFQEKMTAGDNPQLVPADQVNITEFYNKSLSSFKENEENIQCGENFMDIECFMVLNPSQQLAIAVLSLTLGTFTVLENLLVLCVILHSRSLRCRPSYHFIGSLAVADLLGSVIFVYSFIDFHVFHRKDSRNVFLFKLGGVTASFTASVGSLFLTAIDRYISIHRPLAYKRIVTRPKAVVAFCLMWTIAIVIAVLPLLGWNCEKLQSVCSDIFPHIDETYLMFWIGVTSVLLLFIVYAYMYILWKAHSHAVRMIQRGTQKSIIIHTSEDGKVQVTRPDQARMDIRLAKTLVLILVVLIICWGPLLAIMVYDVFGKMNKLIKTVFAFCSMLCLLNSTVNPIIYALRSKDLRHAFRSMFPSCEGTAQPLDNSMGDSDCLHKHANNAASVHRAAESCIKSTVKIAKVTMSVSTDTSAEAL
Outline: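 HEK293 cells co-transfected with hCB1 and β-arrestin2 PM-translocation BRET biosensor (+GRK2); 48 h post-transfection in HBSS, test compound (0–600 nM, 12 points) added 3–5 min before CP55,940 at 100 nM (EC75-80). Overnight incubation at 37 °C; BRET (515/400 nm) read after 2 µM e-coelenterazine Prolume Purple, standardized to controls.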

human CB1 receptor [2] = target: T1, human CB1 receptor; test: bioSensAll GAPL-Gi2 BRET biosensor assay in HEK293 cells transfected with hCB1; test compound added before EC75-80 of agonist CP55,940 (0.1 nM); assay type: cell-based; details: vs CP55,940 0.1 nM (EC75-80), read-out: CB1 wt Gi2 IC50
Outline: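 Test compounds at 12 doses up to 600 nM preceded a 0.1 nM CP55,940 challenge in hCB1/GAPL-Gi2 HEK293 cells. After overnight 37° C incubation, methoxy e-coelenterazine (2 µM final) was added and the 515/400 nm BRET ratio normalized to positive and negative controls.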

IC50 (human CB1 receptor [1])	IC50 (human CB1 receptor [2])	SMILES
0.931 nM	0.555 nM	CN(CCO)c1nc(N2CCC(C)(C(N)=O)CC2)c2nc(-c3ccccc3Cl)n(-c3ccc(Cl)cc3)c2n1 [Compound 158, 1-[8-(2-chlorophenyl)-9-(4-chlorophenyl)-2-((2-hydroxyethyl)(methyl)amino)-purin-6-yl]-4-methyl-piperidine-4-carboxamide]
6.76 nM	0.754 nM	CC(C)(O)CNc1nc(N2CCC(C)(C(N)=O)CC2)c2nc(-c3ccccc3Cl)n(-c3ccc(Cl)cc3)c2n1 [Compound 85, 1-[8-(2-chlorophenyl)-9-(4-chlorophenyl)-2-[(2-hydroxy-2-methyl-propyl)amino]purin-6-yl]-4-methyl-piperidine-4-carboxamide]
64.3 nM	10.1 nM	Cc1cccnc1-c1nc2c(N3CCC(C)(C(N)=O)CC3)nc(N(C)CCO)nc2n1-c1ccc(Cl)cc1 [Compound 51, 1-[9-(4-chlorophenyl)-2-[2-hydroxyethyl(methyl)amino]-8-(3-methyl-2-pyridyl)purin-6-yl]-4-methyl-piperidine-4-carboxamide]
1.75 nM	0.848 nM	CC(C)OC1(C(N)=O)CCN(c2nc(N3CCC[C@H]3CO)nc3c2nc(-c2ccc(C#N)nc2)n3-c2ccc(Cl)cc2)CC1 [Compound 136, 1-[9-(4-chlorophenyl)-8-(6-cyano-3-pyridyl)-2-[(2S)-2-(hydroxymethyl)pyrrolidin-1-yl]purin-6-yl]-4-isopropoxy-piperidine-4-carboxamide]
13 nM	6.33 nM	CN(CC(C)(C)O)c1nc(N2CCC(C)(C(N)=O)CC2)c2nc(-c3ccc(C#N)nc3)n(-c3ccc(Cl)cc3)c2n1 [Compound 110, 1-[9-(4-chlorophenyl)-8-(6-cyano-3-pyridyl)-2-[(2-hydroxy-2-methyl-propyl)-methyl-amino]purin-6-yl]-4-methyl-piperidine-4-carboxamide]
10.2 nM	1.5 nM	COCCOc1nc(N2CCC(C(F)(F)F)CC2)c2nc(-c3ccccc3Cl)n(-c3ccc(Cl)cc3)c2n1 [Compound 27, 8-(2-chlorophenyl)-9-(4-chlorophenyl)-2-(2-methoxyethoxy)-6-[4-(trifluoromethyl)-1-piperidyl]purine]
6.22 nM	1.35 nM	CCNC1(C(N)=O)CCN(c2nc(Cl)nc3c2nc(-c2ccccc2Cl)n3-c2ccc(Cl)cc2)CC1 [Compound 144, 1-(2-chloro-8-(2-chlorophenyl)-9-(4-chlorophenyl)-9H-purin-6-yl)-4-(ethylamino)piperidine-4-carboxamide]

SMILES	IC50 (human CB1 receptor [1])	IC50 (human CB1 receptor [2])
CNCCOc1nc(N2CCC(C(N)=O)CC2)c2nc(-c3ccccc3Cl)n(-c3ccc(Cl)cc3)c2n1 [Compound 156]	> 5000 nM	54.7 nM
CC(C)(O)COc1nc(N2CCS(=O)(=O)CC2)c2nc(-c3ccccc3Cl)n(-c3ccc(Cl)cc3)c2n1 [Compound 209]	14.7 nM	1.34 nM
CCNC1(C(N)=O)CCN(c2nc(NCc3ccccc3)nc3c2nc(-c2ccccc2Cl)n3-c2ccc(Cl)cc2)CC1 [Compound 151]	12.9 nM	4.46 nM
CN(CCO)c1nc(N2CCC(F)(F)CC2)c2nc(-c3ccccc3Cl)n(-c3ccc(Cl)cc3)c2n1 [Compound 184]	0.889 nM	0.24 nM
